How the values were obtained:
EGF = biological target: T1, EGF (Homo sapiens, UniProt P01133); assay: Inhibition of [125I]-EGF binding to NIH 3T3 cells overexpressing EGFR; details: 10 μM
T1 construct: host or cells: NIH 3T3 cells overexpressing EGFR carry the receptor
Experimental: NIH 3T3 (PDGF) or NIH 3T3 cells overexpressing either EGFR (EGF), IGFR (IGF) or Flk-1 (VEGF), are incubated with [^125I]-PDGF, [^125I]-EGF, [^125I]-IGF or [^125I]-VEGF, respectively (50,000 cpm per well) and increasing concentrations of GFB-111 or GFB-116. Cells are incubated at 4° C. for 1-3 h. After discarding media, the cells are washed 3 times with PBS and three times with Tris 25 mM pH 8.0, 1% T-X-100, 10% glycerol, 1% SDS. Lysates plus wash are counted. Excess of cold growth factors is used to obtain non-specific binding levels.
Whether GFB 111 can block [^125I]-PDGF-BB specific binding in NIH 3T3 cells is determined by pre-treatment of the PDGF-BB with increasing concentrations of GFB-111. FIG. 2C illustrates that in the absence of GFB-111, [^125I]-PDGF-BB is bound by NIH3T3 cells. However, pre-treatment with increasing concentrations of GFB-111, results in a concentration-dependent decrease in PDGF-BB binding.

[1] = tested on: human medulloblastoma DaOY; assay: Antitumor efficacy, DaOY xenograft in nude mice; format: in vivo; details: 50 mg per kg per day
[2] = tested on: PDGF-BB stimulated DNA synthesis in NIH 3T3 cells; format: cell-based; details: 3 h
Experimental: Starved NIH 3T3 or NIH 3T3 overexpressing IGFR are treated for 16 hours with indicated concentrations of GFB-111 and either 10 ng/ml PDGF or 50 ng/ml IGF-1, respectively, then labeled for 2 hr (NIH 3T3) or 4 hr (IGFR) with ^3H-thymidine. Cells are then washed in PBS, lysed in 0.1N NaOH and spotted onto glass fiber filters. DNA is precipitated with ice cold ethanol then ^3H-thymidine incorporation quantified by scintillation counting.
The selectivity of PDGF-induced cellular responses, is evaluated by the selectivity of GFB-111 to inhibit growth factor-stimulated DNA synthesis using a [^3H]-thymidine incorporation assay. […] In contrast GFB-111 is ineffective at inhibiting IGF-1-stimulated DNA synthesis at concentrations as high as 100 μM (FIG. 4).

[3] = tested on: IGF-1 stimulated IGF-1R tyrosine phosphorylation; assay: Inhibition of IGF-1 stimulated IGFR tyrosine phosphorylation in IGFR/3T3 cells; format: cell-based; details: 100 μM; IGFR/3T3, IGF-1 stimulated
Experimental: The ability of the GFB library to block the ability of IGF-1 to stimulate the IFG-1 R tyrosine phosphorylation and MAP kinase activation is evaluated using the cell assay described above with IGF-1R/3T3 cells as target cell. […] A preferred embodiment of the invention is a compound that binds to an insulin-like growth factor-1, of the general structure III, wherein R is n-butyl, n-propyl, or benzyl, and X1, X2, X3, and X4 optionally comprise identical cyclic peptide loops of the general structure II, and wherein R1, R2, R3, and R4 are each amino acid side chains that define a tetrapeptide sequence, wherein said tetrapeptide is covalently attached at the amino and carboxy termini of said tetrapeptide to a 3-aminomethyl-5-aminobenzamide linking group.

[4] = tested on: Erk1/Erk2 activation in U87MG tumors; assay: Phosphorylated/activated Erk1/Erk2 in U87MG tumors in vivo; design: species or system nude mice; details: day 32, 100 and 200 mg per kg
Experimental: U87MG cells (human glioblastoma) are harvested, resuspended in PBS and injected s.c. into the right and left flank (10×10^6 cells per flank) of 8 week old female nude mice (Charles River, Wilmington, Mass.). When tumors reached about 100 mm^3, animals are dosed i.p. with 0.2 ml once daily. Control animals received a saline vehicle whereas treated animals are injected with GFB-111 (50, 100 or 200 mg/kg/day). The tumor volumes are determined by measuring the length (l) and the width (w) and calculating the volume (V=lw^2/2) as described previously. For detection of phosphorylated/activated Erk1/Erk2 in tumors in vivo, the tumors are extracted 20 min after the last GFB-111 injection on day 32, rinsed and the tissue homogenized in HEPES lysis buffer (30 mM Hepes, pH 7.5, 1% T-X-100, 10% glycerol, 10 mM NaCl, 5 mM MgCl2, 25 mM NaF, 1 mM EGTA, 2 mM Na3VO4, 10 μg/ml trypsin inhibitor, 25 μg/ml leupeptin, 10 μg/ml aprotinin, 2 mM PMSF). The lysates (50-100 μg) are electrophoresed on a 15% SDS-PAGE, transferred to nitrocellulose membranes and immunoblotted, with anti-phospho-p44/p42 MAPK (Thy202/Tyr204).

T1 sequence (P01133 971-1023 limits assumed, species assumed): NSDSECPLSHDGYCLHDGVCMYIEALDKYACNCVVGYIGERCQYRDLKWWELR

CCCCOc1c2cc(C(=O)Nc3cc4cc(c3)C(=O)NCC(=O)N[C@@H](CC(=O)O)C(=O)NCC(=O)N[C@@H](Cc3ccc(O)cc3)C(=O)NC4)cc1Cc1cc(C(=O)Nc3cc4cc(c3)C(=O)NCC(=O)N[C@@H](CC(=O)O)C(=O)NCC(=O)N[C@@H](Cc3ccc(O)cc3)C(=O)NC4)cc(c1OCCCC)Cc1cc(C(=O)Nc3cc4cc(c3)C(=O)NCC(=O)N[C@@H](CC(=O)O)C(=O)NCC(=O)N[C@@H](Cc3ccc(O)cc3)C(=O)NC4)cc(c1OCCCC)Cc1cc(C(=O)Nc3cc4cc(c3)C(=O)NCC(=O)N[C@@H](CC(=O)O)C(=O)NCC(=O)N[C@@H](Cc3ccc(O)cc3)C(=O)NC4)cc(c1OCCCC)C2 [GFB-111]
Effect on [125I]-EGF binding (EGF): lack of significant effects
Growth of DaOY tumors [1]: minimally affected
IC50 [2]: 6.5 µM
% Inhibition at 100 μM IGF1R-Y-P [3]: −12.4%
Erk1/Erk2 activation in the tumors [4]: blocked

Source: patent US8361970B2, “Growth factor binding molecules” (University of South Florida, priority 2000, dated 2013)
